The values below come from paper PMC12935787, “Clinical pharmacokinetics and pharmacometabolomics of Andrographis paniculata capsules: Bridging drug disposition and metabolic response to precision medicine” (Naunyn-Schmiedeberg's Archives of Pharmacology, 2025).

Structures are written as SMILES. Where two headings read alike, the source gives them in different places.

Data set [1] concerns Human metabolic pathways (KEGG). Briefly: Urine pharmacometabolomics, peaks-to-pathway mummichog analysis. In kind it is in vivo, human (healthy volunteers). As to conditions: urinary PMx analysis, 1000 mg and 2000 mg AP (either dose). The procedure:
The protocol was published (Tee et al. [2022]).
Plasma samples (blank and subject) were thawed from −80 °C and processed using cold protein precipitation (200 μL plasma + 600 μL acetone:acetonitrile:methanol [1:1:1]). After −20 °C incubation (1 h) and centrifugation (10,000 rpm, 4 °C, 10 min), supernatants were filtered (0.22 μm) into LC–MS vials. System suitability test using vendor-provided internal standards ensured instrument performance parameters met acceptance criteria prior to metabolomics analysis. Samples (plasma and urine) were prepared in four batches. Each batch was analyzed separately in positive and negative ionization modes using a global metabolomics approach, resulting in eight analytical batches. Each analytical batch commenced with blank water, blank water spiked with internal standard (IS), and blank plasma or urine (with and without IS), all meeting the acceptance criteria in Figure S6 and Figure S7. Five pooled quality control (PQC) samples were analyzed at batch start, with additional PQCs interspersed after every fourth subject sample to monitor LC–MS system stability. Chromatogram overlays of all PQCs for every batch were assessed for consistency and instrument stability. Overlays of PQCs with subject samples were also evaluated in Figure S8. All eight batches met predefined acceptance criteria prior to data processing.
Dose-dependent PMx analyses compared pre-dose (T0) with post-dose time points (T2.5, T3, T3.5) for plasma and pre-dose (U0) with post-dose intervals (0–4 h [U1], 4–8 h [U2], 8–12 h [U3]) for urine, using positive and negative ion mode acquisition.
PCA results for pre- and post-dose urine samples were obtained by performing similar statistical and multivariate analyses of metabolite data (Figure S5). Batch effects were not observed in the normalized datasets for both positive and negative modes at either dose. All urine samples were successfully analyzed, except for samples U13 and U14 for the 1000 mg AP dose in positive mode, which were not captured due to a power supply issue with the LC–MS during the analysis.

On the set-up of data set [2]: method as in Songvut et al. [2023b]. As to conditions: ref Songvut et al. [2023b], cited from earlier work; for Cmax, previously reported / Tmax, previously reported: AP dose corresponding to 60 mg of andrographolide.
Details of data set [3]: method as in Panossian et al. [2000]. As to conditions: single dose of AP equivalent to 20 mg andrographolide; ref Panossian et al. [2000]; cited from earlier work.

As to `C=C1CC[C@@H]2[C@](C)(CO[C@@H]3O[C@H](CO)[C@@H](O)[C@H](O)[C@H]3O)CCC[C@@]2(C)[C@@H]1CCC1=CCOC1=O` [neoandrographolide], the “free compound detected in urine” value in data set [1] is listed as “detected no free”. In data set [2], the “Cmax, previously reported” value was 24.4 ± 5.6 ng/mL and the “Tmax, previously reported” value was 54 min.

Regarding `C=C1CC[C@@H]2[C@](C)(CO)[C@H](O)CC[C@@]2(C)[C@@H]1CCC1=CCOC1=O` [14-deoxyandrographolide], in data set [1], the “free compound detected in urine” value is “detected no free”. Besides, in data set [2], the “Cmax, previously reported” value is 4.2 ± 3.4 ng/mL and the “Tmax, previously reported” value is 60 min.

In the case of `C=C1CC[C@@H]2[C@](C)(CO)[C@H](O)CC[C@@]2(C)[C@@H]1C/C=C1/C(=O)OC[C@H]1O` [andrographolide], the “free compound detected in urine” value in data set [1] is “detected no free”. In data set [2], the “Cmax, previously reported” value is 72.1 ± 28.7 ng/mL; the “Tmax, previously reported” value is 48 min; the “tolerance in human PK studies” value was 180 to 360 mg/day. Also, in data set [3], the “Tmax, previously reported” value is 90 to 120 min.
